Assay results: US20220047530A1, “USE OF HORDENINE IN PREPARING DRUG FOR TREATING HYPOPHYSOMA” (Wuhan Third Hospital, priority 2019, published 2022)
“Also recorded” adds a separate entry of the source.

How the values were obtained:
prolactin (PRL) = assay: ELISA of prolactin content in serum of rats with prolactinoma and adrenocorticotrophic hormone adenoma; type: in vivo, F344 rats (Rattus norvegicus); conditions: oral gavage 40, 20, 10 mg/kg once a day for 30 days; vs model group
Text: (§1) 70 rats of the prolactinoma and adrenocorticotrophic hormone adenoma model as established in Step 1.1 “Establishment of Rattus norvegicus pituitary tumor model” and normal rats of the control group are used as samples.
(§2) The 70 F344 rats are randomly divided into the normal group, operation group, model group, positive drug group (bromocriptine positive drug group), high-dose hordenine group, medium-dose hordenine group, and low-dose hordenine group, […]. Except rats in the normal group and the operation group, rats in the other groups are all made into rats with prolactinoma and adrenocorticotrophic hormone adenoma.
(§3) Rats in the positive drug group are given an aqueous bromocriptine solution by gavage at a dose of 0.45 mg/kg. Rats in the high-, medium- and low-dose groups of an aqueous solution of hordenine are given an aqueous solution of hordenine by oral gavage at a dose of 40 mg/kg, 20 mg/kg, and 10 mg/kg, respectively. Rats in the normal group and the model group are given the same dose of distilled water. The administration is performed once a day for 30 days, and during this period of time, the rats are weighed every five days and the changes in body weight are recorded. […]
(§4) The contents of PRL and IL-β in the serum of rats in each group are determined by ELISA according to the procedures in the ELISA kit instructions.

IL-β = assay: ELISA of IL-β content in serum of rats with prolactinoma and adrenocorticotrophic hormone adenoma; type: in vivo, F344 rats (Rattus norvegicus); conditions: oral gavage 40, 20, 10 mg/kg once a day for 30 days; vs model group
Text: as §1, §2, §3, §4

SD rats = assay: Acute toxicity test (maximum dose method); type: in vivo; parameters: key to Inflammation score: 0: no or very little inflammation; 1: mild inflammation; 2: moderate inflammation; 3: severe inflammation; conditions: for ALB / ALP / ALT / AST / DBIL / TBA / TBIL / TP / γ-GT: serum
Text: The experimental animals are 40 SPF-grade SD rats, provided by the Experimental Animal Center of China Three Gorges University (SCXK (E)) 2017-0012), wherein half are males, and half are females, each with a body weight of 150 g; the animal number is: No. 42010200001245, and the experimental unit license number is: SYXK (E) 2014-0080.
5 SPF-grade SD rats are randomly selected for toxicity prediction. Another 30 SPF-grade SD rats are randomly selected, wherein half are males, and half are females. After the purchase of the animals, the animals are adaptively fed for one week. The rats are fasted at the night before the experiment (without stopping the provision of water). During the experiment, the animals are randomly divided into 3 groups, which are the control group, the low-dose hordenine treatment group (0.035 g/kg), and the high-dose hordenine treatment group (0.07 g/kg).
If no rats die in the pre-experiment, according to the acute toxicity test method, the maximum dose method is used, and hordenine is administered by gavage at a high dose of 0.07 g/kg and a low dose of 0.035 g/kg, respectively. The control group is given the same volume of saline. The administration is carried out twice a day (with an interval of no less than 4 hours) for 7 days, and the rats are fasted for 3 to 4 hours after the administration. The animals' immediate reactions are recorded, and the rats' appearance, behavior, activity, spirit, appetite, fur, breathing, weight, and the like, are carefully observed continuously for 14 days. The poisoning, death, and amounts of food and water consumed by the rats are recorded daily to determine the LD0 (0% mortality), LD100 (100% mortality) and the r value between the corresponding dose groups, and determine the LD50 (half lethal dose) value. For mice that die during the experiment, they should be dissected immediately to find the cause of their death. After the completion of the experiment, all survived rats are anesthetized by intraperitoneal injection of urethane, and immediately dissected to remove the heart, liver, spleen, lung, and kidney, which are observed with naked eyes for disease. And pathological sections of each organ are made: The tissues are fixed with a solution of 4% paraformaldehyde, conventionally sampled, dehydrated, embedded in paraffin, made into a slice (4 μm thick), stained with HE staining method, observed with an optical microscope, and photographed to roughly determine the target organs of toxicity. The serum of all experimental rats is used for the determination of routine blood biochemical indexes.

[1] = gavage 0.07 and 0.035 g/kg twice a day for 7 days
[2] = low-dose, high-dose vs control, P>0.05
[3] = high-dose group (0.07 g/kg), female
[4] = high-dose group (0.07 g/kg), male
[5] = low-dose group (0.035 g/kg), female
[6] = low-dose group (0.035 g/kg), male

CN(C)CCc1ccc(O)cc1 [hordenine, 4-(2-dimethylaminoethyl)phenol] was tested, and the “expression of PRL in serum (ELISA)” value (prolactin (PRL)) was “significantly inhibit”, the “expression of IL-β in serum (ELISA)” value (IL-β) was “significantly inhibit” and the Inflammation score (SD rats; Heart, female, high-dose group) was 0. For the same compound, the Inflammation score (SD rats; Heart, female, low-dose group) was 0, the Inflammation score (SD rats; Heart, male, high-dose group) was 0 and the Inflammation score (SD rats; Heart, male, low-dose group) was 0. For the same compound, the Inflammation score (SD rats; Kidney, female, high-dose group) was 0, the Inflammation score (SD rats; Kidney, female, low-dose group) was 0 and the Inflammation score (SD rats; Kidney, male, high-dose group) was 1. The Inflammation score (SD rats; Kidney, male, low-dose group) was 0, the Inflammation score (SD rats; Liver, female, high-dose group) was 0 and the Inflammation score (SD rats; Liver, female, low-dose group) was 0. For the same compound, the Inflammation score (SD rats; Liver, male, high-dose group) was 0, the Inflammation score (SD rats; Liver, male, low-dose group) was 0 and the Inflammation score (SD rats; Lung, female, high-dose group) was 1. It also gave an Inflammation score (SD rats; Lung, female, low-dose group) of 0, an Inflammation score (SD rats; Lung, male, high-dose group) of 1 and an Inflammation score (SD rats; Lung, male, low-dose group) of 0. The Inflammation score (SD rats; Spleen, female, high-dose group) was 1, the Inflammation score (SD rats; Spleen, female, low-dose group) was 0 and the Inflammation score (SD rats; Spleen, male, high-dose group) was 1. The Inflammation score (SD rats; Spleen, male, low-dose group) was 0, the general clinical signs (SD rats; [1]) was “no other adverse reactions” and the “time to recovery of reduced activity after treatment” value (SD rats; [1]) was “about 2 hours”. For the same compound, the death of rats (SD rats; gavage 0.07 g/kg and 0.035 g/kg twice a day for 7 days) was “No rats die; also recorded: no Rattus norvegicus death”, the lethal dose (SD rats; gavage, twice a day for 7 days) was “greater than 0.14 g/kg” and the “inflammation in the liver, spleen, and kidneys (pathological slices and biochemical experiments)” value (SD rats; high-dose group) was “slight inflammation”. For the same compound, the kidney pathology (SD rats; high-dose group) was “topical renal tubule interstitial connective tissue of rats in the high-dose group is proliferated”, the “liver pathology (hepatocytes)” value (SD rats; high-dose group) was “extensive severe edema” and the lung pathology (SD rats; high-dose group) was “proliferated alveolar epithelial cells, and the alveolar walls are thickened”. The “spleen pathology (white pulp)” value (SD rats; high-dose group) was “topical lymphocytes in the white pulp of the spleen tissue are reduced”, the “tissue inflammatory response in the spleen, lung, and kidney” value (SD rats; high-dose group) was “mild inflammatory response” and the kidney pathology (SD rats; low-dose group) was “no obvious abnormality”. For the same compound, the “liver pathology (hepatocytes)” value (SD rats; low-dose group) was “extensive edema”, the lung pathology (SD rats; low-dose group) was “a large number of proliferated alveolar epithelial cells” and the “spleen pathology (white pulp)” value (SD rats; low-dose group) was “A small amount of lymphocytes exhibit necrosis, apoptosis”. For the same compound, the tissue inflammatory response (SD rats; low-dose group) was “no inflammatory response”, the liver function indexes (SD rats; [2]) was “no significant influence” and the “renal function (blood BUN and CREA)” value (SD rats; [2]) was “no significant influence”. For the same compound, the body weight (SD rats; one week after the treatment) was “physiological increase”, the ALB (SD rats; [3]) was 32.45 ± 1.61 g/L and the ALP (SD rats; [3]) was 195.08 ± 92.02 U/L. For the same compound, the ALT (SD rats; [3]) was 51.25 ± 4.84 U/L, the AST (SD rats; [3]) was 141 ± 12.04 U/L and the DBIL (SD rats; [3]) was 7.23 ± 1.72 µmol/L. The TBA (SD rats; [3]) was 27.57 ± 12.2 µmol/L, the TBIL (SD rats; [3]) was 13.4 ± 5.73 µmol/L and the TP (SD rats; [3]) was 55.45 ± 2.31 g/L. The γ-GT (SD rats; [3]) was 3.62 ± 1.97 U/L, the ALB (SD rats; [4]) was 29.5 ± 1.05 g/L and the ALP (SD rats; [4]) was 278.67 ± 38.64 U/L. The ALT (SD rats; [4]) was 51.47 ± 6.19 U/L, the AST (SD rats; [4]) was 147.02 ± 17.42 U/L and the DBIL (SD rats; [4]) was 6.14 ± 0.86 µmol/L. The TBA (SD rats; [4]) was 41.43 ± 10.19 µmol/L, the TBIL (SD rats; [4]) was 10.08 ± 2.69 µmol/L and the TP (SD rats; [4]) was 49.11 ± 2.17 g/L. It also gave a γ-GT (SD rats; [4]) of 3.9 ± 2.10 U/L, an ALB (SD rats; [5]) of 31.88 ± 1.02 g/L and an ALP (SD rats; [5]) of 229.4 ± 70.39 U/L. It also gave an ALT (SD rats; [5]) of 43.54 ± 3.84 U/L, an AST (SD rats; [5]) of 146.92 ± 24.61 U/L and a DBIL (SD rats; [5]) of 9.03 ± 5.05 µmol/L. The TBA (SD rats; [5]) was 23.77 ± 6.9 µmol/L, the TBIL (SD rats; [5]) was 11.67 ± 5.16 µmol/L and the TP (SD rats; [5]) was 53.54 ± 1.24 g/L. The γ-GT (SD rats; [5]) was 3.92 ± 1.78 U/L, the ALB (SD rats; [6]) was 28.86 ± 0.55 g/L and the ALP (SD rats; [6]) was 328.05 ± 53.25 U/L. For the same compound, the ALT (SD rats; [6]) was 40.46 ± 5.55 U/L, the AST (SD rats; [6]) was 116.65 ± 18.14 U/L and the DBIL (SD rats; [6]) was 6.81 ± 2.83 µmol/L. For the same compound, the TBA (SD rats; [6]) was 36.99 ± 10.95 µmol/L, the TBIL (SD rats; [6]) was 10.64 ± 4.19 µmol/L and the TP (SD rats; [6]) was 47.34 ± 1.99 g/L. The γ-GT (SD rats; [6]) was 2.59 ± 1.84 U/L, the “pathological sections: toxicity to liver, spleen, lung and kidney” value (SD rats; treatment groups) was “slight toxicity” and the “physiological conditions, weight changes, behavioral activities vs control group” value (SD rats; treatment groups) was “no significant differences”.
